Results from patent US20100261642A1, “NUTRITIONAL FORMULATION WITH HIGH ENERGY CONTENT” (N.V. NUTRICIA, priority 2007, published 2010).

Tested on: intestinal epithelial cell lines T84
Assay: IL-4 mediated barrier disruption in T84 monolayers (flux and transepithelial resistance)
Assay type: cell-based, human
Details: for protective effect on IL-4 mediated barrier destruction (4 kD dextran flux), FIG. 1: 10 μM and 100 μM, time and dose dependent; for effect on IL-4 mediated barrier disruption (flux), in words: 100 μM, Table 1 summary, compared to control
Method: Monolayers (MC) of intestinal epithelial cell lines T84 (ATCC, USA) were cultured on transwell filters (Corning, Costar BV, The Netherlands) allowing both mucosal and serosal sampling and stimulation of human intestinal epithelial cells. Two weeks post confluency the monolayers were incubated in the presence of IL-4 (2 ng/ml, serosal compartment, Sigma, USA) with or without polyunsaturated fatty acids ARA, DHA, GLA, EPA, or control palmitic acid (10 μM or 100 μM, mucosal compartment, Sigma, St. Louis, USA). Cells were pre-incubated with ARA, DHA, EPA, or palmitic acid for 48 hr prior to the IL-4 incubation. The co-incubation of PUFA's and palmitic acid with IL-4 was continued for another 48 hr; while culture medium and additives were changed every 24 hr. The epithelial barrier function was determined by measuring the transepithelial resistance (TER) and permeability.

Compound: CCCCC/C=C\C/C=C\C/C=C\C/C=C\CCCC(=O)O [ARA, arachidonic acid]
- protective effect on IL-4 mediated barrier destruction (4 kD dextran flux), FIG. 1: protect against IL-4 mediated barrier disruption
- effect on IL-4 mediated barrier disruption (flux), in words: inhibit the increased flux caused by IL-4

Compound: CC/C=C\C/C=C\C/C=C\C/C=C\C/C=C\C/C=C\CCC(=O)O [DHA, docosahexaenoic acid]
- IL-4 Flux (100 μM fatty acid, mucosal, IL-4 2 ng/ml, serosal, 48 hr pre-incubation + 48 hr co-incubation, permeability (4 kD dextran flux)): 271
- IL-4 TER (100 μM fatty acid, mucosal, IL-4 2 ng/ml, serosal, 48 hr pre-incubation + 48 hr co-incubation, transepithelial resistance): 547

Compound: CCCCC/C=C\C/C=C\C/C=C\CCCCC(=O)O [GLA]
- protective effect on IL-4 mediated barrier destruction (4 kD dextran flux), FIG. 1: protect against IL-4 mediated barrier disruption

Compound: CCCCCCCCCCCCCCCC(=O)O [Palmitic acid, palmitic acid, reference compound]
- effect on IL-4 mediated barrier disruption (flux), in words: detrimental effect
